Measured values as given in ChEMBL document CHEMBL3734659, “Identification of tris-(phenylalkyl)amines as new selective h5-HT2Breceptor antagonists” (Medchemcomm, 2015).
Active and inactive are the calls of the source. The rule behind the calls is not given here.

How the values were obtained:
[1] = biological target: Muscarinic acetylcholine receptor M1 (Homo sapiens) (UniProt P11229); experiment: Displacement of [3H]NMS from human Muscarinic acetylcholine M1 receptor stably expressed in CHO cell after 90 mins by scintillation counting method; assay type: cell-based
Sequence of Muscarinic acetylcholine receptor M1 (Homo sapiens) (P11229 whole entry): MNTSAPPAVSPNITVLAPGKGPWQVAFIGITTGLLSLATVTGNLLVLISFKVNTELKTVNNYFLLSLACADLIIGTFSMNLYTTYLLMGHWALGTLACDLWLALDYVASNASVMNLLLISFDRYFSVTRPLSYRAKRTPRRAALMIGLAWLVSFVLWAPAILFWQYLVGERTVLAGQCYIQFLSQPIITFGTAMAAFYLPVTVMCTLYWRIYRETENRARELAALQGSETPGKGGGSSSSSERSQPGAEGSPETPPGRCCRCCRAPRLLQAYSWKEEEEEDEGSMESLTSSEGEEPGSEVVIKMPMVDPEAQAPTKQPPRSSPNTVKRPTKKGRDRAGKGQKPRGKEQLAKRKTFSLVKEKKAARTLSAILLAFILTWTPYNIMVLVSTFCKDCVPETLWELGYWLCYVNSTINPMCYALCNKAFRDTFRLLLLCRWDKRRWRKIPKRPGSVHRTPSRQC

[2] = biological target: T1, 5-hydroxytryptamine receptor 2C (Homo sapiens) (UniProt P28335); experiment: Agonist activity at human recombinant 5-HT2C receptor expressed in Flp-In HEK cells preincubated for 10 mins by FLIPR based calcium mobilization assay; assay type: functional, cell-based; conditions: HEK293
T1 sequence (whole entry): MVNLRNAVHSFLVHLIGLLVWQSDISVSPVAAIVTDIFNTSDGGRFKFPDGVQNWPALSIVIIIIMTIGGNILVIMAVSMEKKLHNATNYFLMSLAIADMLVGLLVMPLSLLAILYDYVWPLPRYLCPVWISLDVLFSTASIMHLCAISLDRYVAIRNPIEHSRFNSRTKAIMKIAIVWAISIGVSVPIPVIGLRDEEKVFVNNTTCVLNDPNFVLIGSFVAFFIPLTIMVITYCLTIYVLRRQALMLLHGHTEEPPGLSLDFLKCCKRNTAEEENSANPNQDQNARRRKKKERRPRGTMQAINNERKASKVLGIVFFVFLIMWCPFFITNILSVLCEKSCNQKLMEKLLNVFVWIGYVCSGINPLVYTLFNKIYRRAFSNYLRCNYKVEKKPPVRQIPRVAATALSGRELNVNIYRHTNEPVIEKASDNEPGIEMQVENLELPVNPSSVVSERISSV

Activity [1]: inactive
Activity [2]: inactive
SMILES: COc1ccc(CCN(CCCc2ccccc2)CCc2ccc3c(c2)OCO3)cc1OC
